Patent US20250051277A1, “DELIVERY OF THERAPEUTIC ALKALOID COMPOUNDS” (Sensorium Therapeutics, Inc., priority 2021, published 2025)
Like-named read-outs stand apart in the source and are kept apart here. Marks after values point to notes of the source that are not given here.

How the values were obtained:
[1] = type: physicochemical; settings: SGF with pepsin, pH 1.5, 37° C.; for Condition 1 Conversion (%): 0.5 mM; for Condition 1 Conversion (%), first value of pair x/y: first of two values; for Condition 1 Conversion (%), second value of pair x/y: second of two values
[2] = type: physicochemical; settings: DI water, 25° C., 0.5 mM

COc1ccc([C@]23CCN(C)[C@H]2CC(OC)(OC)CC3)cc1OC (stereo in doubt) [Compound 190, 3a-(3,4-dimethoxyphenyl)-6,6-dimethoxy-1-methyl-2,3,4,5,7,7a-hexahydroindole]
Condition 1 Conversion (%) ([1]; time 1 min): 0%
Condition 1 Conversion (%) ([1]; time 5 min): 8.30%
Condition 1 Conversion (%) ([1]; time 30 min): 82.97%
Condition 1 Conversion (%) ([1]; time 1 h): 100%
Condition 1 Conversion (%) ([1]; time 4 h): 100%
Condition 1 Conversion (%) ([1]; time 24 h): 100%
Condition 2 Conversion (%) ([2]; time 1 min): 0%
Condition 2 Conversion (%) ([2]; time 5 min): 0%
Condition 2 Conversion (%) ([2]; time 30 min): 0%
Condition 2 Conversion (%) ([2]; time 1 h): 0%
Condition 2 Conversion (%) ([2]; time 4 h): 0%
Condition 2 Conversion (%) ([2]; time 24 h): 0%

COc1ccc(C23CCC(=NNC(=O)Nc4ccccc4)C[C@@H]2N(C)CC3)cc1OC (stereo in doubt) [Compound 198, 1-[[(3aR)-3a-(3,4-dimethoxyphenyl)-1-methyl-2,3,4,5,7,7a-hexahydroindol-6-ylidene]amino]-3-phenyl-urea]
Condition 1 Conversion (%) ([1]; time 1 min): 0.86%
Condition 1 Conversion (%) ([1]; time 5 min): 1%
Condition 1 Conversion (%) ([1]; time 30 min): 1%
Condition 1 Conversion (%) ([1]; time 1 h): 1%
Condition 1 Conversion (%) ([1]; time 4 h): 1%
Condition 1 Conversion (%) ([1]; time 24 h): 1%
Condition 2 Conversion (%) ([2]; time 1 min): 0.2%
Condition 2 Conversion (%) ([2]; time 5 min): 0.21%
Condition 2 Conversion (%) ([2]; time 30 min): 0.22%
Condition 2 Conversion (%) ([2]; time 1 h): 0.55%
Condition 2 Conversion (%) ([2]; time 4 h): 0.89%
Condition 2 Conversion (%) ([2]; time 24 h): 0.8%

COc1ccc([C@]23CCN(C)[C@H]2CC2(CC3)OCC(c3ccc([N+](=O)[O-])cc3)O2)cc1OC (stereo partly drawn) [Compound 114, (3a'S,7a'S)-3a′-(3,4-dimethoxyphenyl)-1′-methyl-4-(4-nitrophenyl)octahydrospiro[[1,3]dioxolane-2,6′-indole]]
Condition 1 Conversion (%) ([1]; time 1 min): 0%
Condition 1 Conversion (%) ([1]; time 5 min): 0%
Condition 1 Conversion (%) ([1]; time 30 min): 0%
Condition 1 Conversion (%) ([1]; time 1 h): 0%
Condition 1 Conversion (%) ([1]; time 4 h): 0%
Condition 1 Conversion (%) ([1]; time 24 h): 0%

COc1ccc([C@@]23CCC(=NNC(=O)c4ccncc4)C[C@@H]2N(C)CC3)cc1OC [Compound 157, N-[[(3aS,7aS)-3a-(3,4-dimethoxyphenyl)-1-methyl-2,3,4,5,7,7a-hexahydroindol-6-ylidene]amino]pyridine-4-carboxamide]
Condition 1 Conversion (%) ([1]; time 1 min): 100%
Condition 1 Conversion (%) ([1]; time 5 min): 100%
Condition 1 Conversion (%) ([1]; time 30 min): 100%
Condition 1 Conversion (%) ([1]; time 1 h): 100%
Condition 1 Conversion (%) ([1]; time 4 h): 100%
Condition 1 Conversion (%) ([1]; time 24 h): 100%

COc1ccc([C@@]23CCC(=NNC(=O)CC[C@H](NC(=O)c4ccc(NCc5cnc6nc(N)nc(O)c6n5)cc4)C(=O)O)C[C@@H]2N(C)CC3)cc1OC [Compound 172, (2S)-5-[2-[(3aS,7aS)-3a-(3,4-dimethoxyphenyl)-1-methyl-2,3,4,5,7,7a-hexahydroindol-6-ylidene]hydrazino]-2-[[4-[(2-amino-4-hydroxy-pteridin-6-yl)methylamino]benzoyl]amino]-5-oxo-pentanoic acid]
Condition 1 Conversion (%) ([1]; time 1 min): 100%
Condition 1 Conversion (%) ([1]; time 5 min): 100%
Condition 1 Conversion (%) ([1]; time 30 min): 100%
Condition 1 Conversion (%) ([1]; time 1 h): 100%
Condition 1 Conversion (%) ([1]; time 4 h): 100%
Condition 1 Conversion (%) ([1]; time 24 h): 100%
Condition 2 Conversion (%) ([2]; time 1 min): 50* %
Condition 2 Conversion (%) ([2]; time 5 min): 70* %
Condition 2 Conversion (%) ([2]; time 30 min): 100%
Condition 2 Conversion (%) ([2]; time 1 h): 100%
Condition 2 Conversion (%) ([2]; time 4 h): 100%
Condition 2 Conversion (%) ([2]; time 24 h): 100%

COc1ccc([C@]23CCN(C)[C@H]2CC2(CC3)OC[C@H]([C@@H](O)[C@@H](O)Cn3c4nc(=O)[nH]c(=O)c-4nc4cc(C)c(C)cc43)O2)cc1OC (stereo partly drawn) [Compound 174, 10-[(2S,3S)-3-[(3′aS,4R)-3′a-(3,4-dimethoxyphenyl)-1′-methyl-spiro[1,3-dioxolane-2,6′-2,3,4,5,7,7a-hexahydroindole]-4-yl]-2,3-dihydroxy-propyl]-7,8-dimethyl-benzo[g]pteridine-2,4-dione]
Condition 1 Conversion (%) ([1]; time 1 min): 0%
Condition 1 Conversion (%) ([1]; time 5 min): 0%
Condition 1 Conversion (%) ([1]; time 30 min): 0%
Condition 1 Conversion (%) ([1]; time 1 h): 0%
Condition 1 Conversion (%) ([1]; time 4 h): 0%
Condition 1 Conversion (%) ([1]; time 24 h): 0%

COc1ccc([C@]23CCN(C)[C@H]2CC2(CC3)O[C@@H]([C@@H](O)Cn3c4nc(=O)[nH]c(=O)c-4nc4cc(C)c(C)cc43)[C@@H](CO)O2)cc1OC (stereo partly drawn) [Compound 196, 10-[(2S)-2-[(3′aS,4S,5R)-3′a-(3,4-dimethoxyphenyl)-5-(hydroxymethyl)-1′-methyl-spiro[1,3-dioxolane-2,6′-2,3,4,5,7,7a-hexahydroindole]-4-yl]-2-hydroxy-ethyl]-7,8-dimethyl-benzo[g]pteridine-2,4-dione]
Condition 1 Conversion (%) ([1]; time 1 min): 0%
Condition 1 Conversion (%) ([1]; time 5 min): 0%
Condition 1 Conversion (%) ([1]; time 30 min): 0%
Condition 1 Conversion (%) ([1]; time 1 h): 0%
Condition 1 Conversion (%) ([1]; time 4 h): 0%
Condition 1 Conversion (%) ([1]; time 24 h): 0%

COc1ccc([C@@]23CCC(=NOC(C)(C)C)C[C@@H]2N(C)CC3)cc1OC [Compound 199, (3aS)-N-tert-butoxy-3a-(3,4-dimethoxyphenyl)-1-methyl-2,3,4,5,7,7a-hexahydroindol-6-imine]
Condition 1 Conversion (%) ([1]; time 1 min): 0%
Condition 1 Conversion (%) ([1]; time 5 min): 0%
Condition 1 Conversion (%) ([1]; time 30 min): 0%
Condition 1 Conversion (%) ([1]; time 1 h): 4.2%
Condition 1 Conversion (%) ([1]; time 4 h): 23.6%
Condition 1 Conversion (%) ([1]; time 24 h): 27.3%
Condition 2 Conversion (%) ([2]; time 1 min): 0%
Condition 2 Conversion (%) ([2]; time 5 min): 0%
Condition 2 Conversion (%) ([2]; time 30 min): 0%
Condition 2 Conversion (%) ([2]; time 1 h): 0%
Condition 2 Conversion (%) ([2]; time 4 h): 0%
Condition 2 Conversion (%) ([2]; time 24 h): 0%

CCON=C1CC[C@@]2(c3ccc(OC)c(OC)c3)CCN(C)[C@H]2C1 [Compound 200, (3aS,7aS)-3a-(3,4-dimethoxyphenyl)-N-ethoxy-1-methyl-2,3,4,5,7,7a-hexahydroindol-6-imine]
Condition 1 Conversion (%) ([1]; time 1 min): 0%
Condition 1 Conversion (%) ([1]; time 5 min): 0%
Condition 1 Conversion (%) ([1]; time 30 min): 0%
Condition 1 Conversion (%) ([1]; time 1 h): 2.1%
Condition 1 Conversion (%) ([1]; time 4 h): 27.7%
Condition 1 Conversion (%) ([1]; time 24 h): 34.1%
Condition 2 Conversion (%) ([2]; time 1 min): 0%
Condition 2 Conversion (%) ([2]; time 5 min): 0%
Condition 2 Conversion (%) ([2]; time 30 min): 0%
Condition 2 Conversion (%) ([2]; time 1 h): 0%
Condition 2 Conversion (%) ([2]; time 4 h): 0%
Condition 2 Conversion (%) ([2]; time 24 h): 0%

COc1ccc([C@@]23CCC(=NOCC(=O)O)C[C@@H]2N(C)CC3)cc1OC [Compound 201, 2-[[(3aS,7aS)-3a-(3,4-dimethoxyphenyl)-1-methyl-2,3,4,5,7,7a-hexahydroindol-6-ylidene]amino]oxyacetic acid]
Condition 1 Conversion (%) ([1]; time 1 min): 0%
Condition 1 Conversion (%) ([1]; time 5 min): 0%
Condition 1 Conversion (%) ([1]; time 30 min): 0%
Condition 1 Conversion (%) ([1]; time 1 h): 0%
Condition 1 Conversion (%) ([1]; time 4 h): 7.1%
Condition 1 Conversion (%) ([1]; time 24 h): 14.7%
Condition 2 Conversion (%) ([2]; time 1 min): 0%
Condition 2 Conversion (%) ([2]; time 5 min): 0%
Condition 2 Conversion (%) ([2]; time 30 min): 0%
Condition 2 Conversion (%) ([2]; time 1 h): 0%
Condition 2 Conversion (%) ([2]; time 4 h): 0%
Condition 2 Conversion (%) ([2]; time 24 h): 0%

COc1ccc([C@@]23CCC(=NOCC(=O)OC(C)(C)C)C[C@@H]2N(C)CC3)cc1OC [Compound 202, tert-butyl 2-[[(3aS,7aS)-3a-(3,4-dimethoxyphenyl)-1-methyl-2,3,4,5,7,7a-hexahydroindol-6-ylidene]amino]oxyacetate]
Condition 1 Conversion (%) ([1]; time 1 min): 0%
Condition 1 Conversion (%) ([1]; time 5 min): 0%
Condition 1 Conversion (%) ([1]; time 30 min): 0%
Condition 1 Conversion (%), first value of pair x/y ([1]; time 1 h): 1.12%
Condition 1 Conversion (%), second value of pair x/y ([1]; time 1 h): 0%
Condition 1 Conversion (%), first value of pair x/y ([1]; time 4 h): 3.01%
Condition 1 Conversion (%), second value of pair x/y ([1]; time 4 h): 6.42%
Condition 1 Conversion (%), first value of pair x/y ([1]; time 24 h): 64.4%
Condition 1 Conversion (%), second value of pair x/y ([1]; time 24 h): 6.42%
Condition 2 Conversion (%) ([2]; time 1 min): 0%
Condition 2 Conversion (%) ([2]; time 5 min): 0%
Condition 2 Conversion (%) ([2]; time 30 min): 0%
Condition 2 Conversion (%) ([2]; time 1 h): 0%
Condition 2 Conversion (%) ([2]; time 4 h): 0%
Condition 2 Conversion (%) ([2]; time 24 h): 0%

COc1ccc([C@@]23CCC(=NOCCO)C[C@@H]2N(C)CC3)cc1OC [Compound 203, 2-[[(3aS,7aS)-3a-(3,4-dimethoxyphenyl)-1-methyl-2,3,4,5,7,7a-hexahydroindol-6-ylidene]amino]oxyethanol]
Condition 1 Conversion (%) ([1]; time 1 min): 0%
Condition 1 Conversion (%) ([1]; time 5 min): 0%
Condition 1 Conversion (%) ([1]; time 30 min): 0%
Condition 1 Conversion (%) ([1]; time 1 h): 0%
Condition 1 Conversion (%) ([1]; time 4 h): 18.58%
Condition 1 Conversion (%) ([1]; time 24 h): 26.48%
Condition 2 Conversion (%) ([2]; time 1 min): 0%
Condition 2 Conversion (%) ([2]; time 5 min): 0%
Condition 2 Conversion (%) ([2]; time 30 min): 0%
Condition 2 Conversion (%) ([2]; time 1 h): 0%
Condition 2 Conversion (%) ([2]; time 4 h): 0%
Condition 2 Conversion (%) ([2]; time 24 h): 0%

CCCC1CO[C@]2(CC[C@@]3(c4ccc(OC)c(OC)c4)CCN(C)C3C2)O1 (stereo partly drawn) [Compound 212, (2R,3′aS)-3′a-(3,4-dimethoxyphenyl)-1′-methyl-4-propyl-spiro[1,3-dioxolane-2,6′-2,3,4,5,7,7a-hexahydroindole]]
Condition 1 Conversion (%) ([1]; time 1 min): 0%
Condition 1 Conversion (%) ([1]; time 5 min): 0%
Condition 1 Conversion (%) ([1]; time 30 min): 0%
Condition 1 Conversion (%) ([1]; time 1 h): 0%
Condition 1 Conversion (%) ([1]; time 4 h): 0%
Condition 1 Conversion (%) ([1]; time 24 h): 0%

CCCC1CO[C@@]2(CC[C@@]3(c4ccc(OC)c(OC)c4)CCN(C)C3C2)O1 (stereo partly drawn) [Compound 238, (2S,3′aS)-3′a-(3,4-dimethoxyphenyl)-1′-methyl-4-propyl-spiro[1,3-dioxolane-2,6′-2,3,4,5,7,7a-hexahydroindole]]
Condition 1 Conversion (%) ([1]; time 1 min): 0%
Condition 1 Conversion (%) ([1]; time 5 min): 0%
Condition 1 Conversion (%) ([1]; time 30 min): 0%
Condition 1 Conversion (%) ([1]; time 1 h): 0%
Condition 1 Conversion (%) ([1]; time 4 h): 0%
Condition 1 Conversion (%) ([1]; time 24 h): 0%
